Data on 68 sequences can be found in the supplement of paper PMC11208160.

A short description of this data set: recombinant UMI read abundance after kanamycin selection (control-corrected) (log10(CPM+1)); higher = more efficient recombination; extreme values may be limits of the assay; sequences stand for … in AGTGCAGAGAAAATCGGCCAGTTTTCTCTGCCTGCAGTCCGCATGCCGTGGGACCCCTTGGGTTCTAACCTGTTGCCTAGATTTATGCAGCGGACTGCCTTTCTCCCAAAGTGATAAACCGG…AGGTTGGTTTCACT; site = the 11-nt donor. An outline of the steps:
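Values, expressed as log10(CPM+1), derive from recombinant UMI counts converted to CPM, averaged across replicates and scaled by control-derived factors. Plating was with IPTG (0.07 mM) plus kanamycin or unselected, two replicates each. The screen pooled donor and donor-binding-loop pairs for the IS621 bridge recombinase in Escherichia coli.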
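Note: IS621 bridge recombinase in Escherichia coli cells against a fixed T5 target plasmid.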

As for “GGCAGTCCATGGACCGGTTTTCCCGGTAATCCGTATTTGGG (site GGCAGTCCTCC)”, the “recombinant UMI read abundance (log10)” value stood at 0.00418.

Regarding “GGCAGTGCATGGACCGGTTTTCCCGGTAATCCGTATTTGGA (site GGCAGTGCTTC)”, the “recombinant UMI read abundance (log10)” value is 0.329.

As to “GGCATTCCATGGACCGGTTTTCCCGGTAATCCGTATTTGAA (site GGCAATCCTTT)”, the “recombinant UMI read abundance (log10)” value is 0.

As to “GGCATTCCATGGACCGGTTTTCCCGGTAATCCGTATTTGAA (site GGCACTCCTTT)”, the “recombinant UMI read abundance (log10)” value came out at 0.0138.

For the sequence “GGCATTCCATGGACCGGTTTTCCCGGTAATCCGTATTTGAA (site GGCAGTCCTTT)”, the “recombinant UMI read abundance (log10)” value worked out at 0.00406.

As to “GGCATTCCATGGACCGGTTTTCCCGGTAATCCGTATTTGAA (site GGCATTCCTTT)”, the “recombinant UMI read abundance (log10)” value came to 0.29.

On to “GGCATTGCATGGACCGGTTTTCCCGGTAATCCGTATTTGGT (site GGCATTGCTAC)”, for which the “recombinant UMI read abundance (log10)” value worked out at 1.48.

In the case of “GGCATTTCATGGACCGGTTTTCCCGGTAATCCGTATTTGGG (site GGCATTTCTCC)”, the “recombinant UMI read abundance (log10)” value stood at 0.

Consider “GGCCAGCCATGGACCGGTTTTCCCGGTAATCCGTATTTGTT (site GGCCAACCTAA)”, for which the “recombinant UMI read abundance (log10)” value worked out at 0.00333.

For “GGCCAGCCATGGACCGGTTTTCCCGGTAATCCGTATTTGTT (site GGCCACCCTAA)”, the “recombinant UMI read abundance (log10)” value was 0.0285.

In the case of “GGCCAGCCATGGACCGGTTTTCCCGGTAATCCGTATTTGTT (site GGCCAGCCTAA)”, the “recombinant UMI read abundance (log10)” value was 0.00292.

For the sequence “GGCCAGCCATGGACCGGTTTTCCCGGTAATCCGTATTTGTT (site GGCCATCCTAA)”, the “recombinant UMI read abundance (log10)” value was 0.

In the case of “GGCCCGACATGGACCGGTTTTCCCGGTAATCCGTATTTGCT (site GGCCCGACTAG)”, the “recombinant UMI read abundance (log10)” value turned out to be 1.49.

“GGCCCTGCATGGACCGGTTTTCCCGGTAATCCGTATTTGTA (site GGCCCTGCTTA)”: the “recombinant UMI read abundance (log10)” value was 0.378.

Consider “GGCGAACCATGGACCGGTTTTCCCGGTAATCCGTATTTGAA (site GGCGAACCTTT)”, for which the “recombinant UMI read abundance (log10)” value came out at 0.

For “GGCGATTCATGGACCGGTTTTCCCGGTAATCCGTATTTGGC (site GGCGATTCTGC)”, the “recombinant UMI read abundance (log10)” value turned out to be 1.57.

“GGCGCAGCATGGACCGGTTTTCCCGGTAATCCGTATTTGGT (site GGCGCAGCTAC)”: the “recombinant UMI read abundance (log10)” value is 0.482.

As for “GGCGCGACATGGACCGGTTTTCCCGGTAATCCGTATTTGCC (site GGCGCGACTGG)”, the “recombinant UMI read abundance (log10)” value amounted to 1.35.

As for “GGCGGCGCATGGACCGGTTTTCCCGGTAATCCGTATTTGTA (site GGCGGCGCTTA)”, the “recombinant UMI read abundance (log10)” value amounted to 0.781.

Take “GGCTACCCATGGACCGGTTTTCCCGGTAATCCGTATTTGTT (site GGCAACCCTAA)”: the “recombinant UMI read abundance (log10)” value turned out to be 0.00887.

For “GGCTACCCATGGACCGGTTTTCCCGGTAATCCGTATTTGTT (site GGCCACCCTAA)”, the “recombinant UMI read abundance (log10)” value was 0.268.

Take “GGCTACCCATGGACCGGTTTTCCCGGTAATCCGTATTTGTT (site GGCGACCCTAA)”: the “recombinant UMI read abundance (log10)” value turned out to be 0.015.

As to “GGCTACCCATGGACCGGTTTTCCCGGTAATCCGTATTTGTT (site GGCTACCCTAA)”, the “recombinant UMI read abundance (log10)” value came out at 0.0101.

On to “GGCTAGTCATGGACCGGTTTTCCCGGTAATCCGTATTTGAC (site GGCTAGTCTGT)”, for which the “recombinant UMI read abundance (log10)” value was 0.

With “GGCTCGTCATGGACCGGTTTTCCCGGTAATCCGTATTTGCA (site GGCTCGTCTTG)”, the “recombinant UMI read abundance (log10)” value is 2.16.

For the sequence “GGCTCTACATGGACCGGTTTTCCCGGTAATCCGTATTTGGC (site GGCTCTACTGC)”, the “recombinant UMI read abundance (log10)” value is 0.

As to “GGCTCTGCATGGACCGGTTTTCCCGGTAATCCGTATTTGCT (site GGCTCTGCTAG)”, the “recombinant UMI read abundance (log10)” value was 1.66.

As for “GGCTTAGCATGGACCGGTTTTCCCGGTAATCCGTATTTGAG (site GGCTTAGCTCT)”, the “recombinant UMI read abundance (log10)” value came out at 1.13.

As for “GGCTTGACATGGACCGGTTTTCCCGGTAATCCGTATTTGCG (site GGCTTGACTCG)”, the “recombinant UMI read abundance (log10)” value stood at 0.919.

Take “GGGAAGACATGGACCGGTTTTCCCGGTAATCCGTATTTGGA (site AGGAAGACTTG)”: the “recombinant UMI read abundance (log10)” value is 0.00654.

For the sequence “GGGAAGACATGGACCGGTTTTCCCGGTAATCCGTATTTGGA (site GGGAAGACTTC)”, the “recombinant UMI read abundance (log10)” value turned out to be 1.22.

Regarding “GGGAAGACATGGACCGGTTTTCCCGGTAATCCGTATTTGGT (site GGGAAGACTAC)”, the “recombinant UMI read abundance (log10)” value came out at 0.836.

“GGGAAGCCATGGACCGGTTTTCCCGGTAATCCGTATTTGTT (site CGGAATCCTAA)”: the “recombinant UMI read abundance (log10)” value is 0.

“GGGAAGCCATGGACCGGTTTTCCCGGTAATCCGTATTTGTT (site GGGAAGCCTAA)”: the “recombinant UMI read abundance (log10)” value stood at 0.0967.

Take “GGGAAGGCATGGACCGGTTTTCCCGGTAATCCGTATTTGCA (site AGGAAGACTTG)”: the “recombinant UMI read abundance (log10)” value turned out to be 0.

Turning to “GGGAAGGCATGGACCGGTTTTCCCGGTAATCCGTATTTGCA (site GGGAAGGCTTG)”, the “recombinant UMI read abundance (log10)” value is 2.86.

Regarding “GGGAATCCATGGACCGGTTTTCCCGGTAATCCGTATTTGAT (site CGGAATCCTAA)”, the “recombinant UMI read abundance (log10)” value came to 0.

With “GGGAATCCATGGACCGGTTTTCCCGGTAATCCGTATTTGAT (site GGGAATCCTAT)”, the “recombinant UMI read abundance (log10)” value came to 0.145.

“GGGAATCCATGGACCGGTTTTCCCGGTAATCCGTATTTGTT (site AGGAATCCTAA)”: the “recombinant UMI read abundance (log10)” value stood at 0.

Turning to “GGGAATCCATGGACCGGTTTTCCCGGTAATCCGTATTTGTT (site CGGAATCCTAA)”, the “recombinant UMI read abundance (log10)” value stood at 0.

For the sequence “GGGAATCCATGGACCGGTTTTCCCGGTAATCCGTATTTGTT (site GGGAATCCTAA)”, the “recombinant UMI read abundance (log10)” value came to 0.192.

For the sequence “GGGAATCCATGGACCGGTTTTCCCGGTAATCCGTATTTGTT (site TGGAATCCTAA)”, the “recombinant UMI read abundance (log10)” value worked out at 0.0126.

Consider “GGGAATGCATGGACCGGTTTTCCCGGTAATCCGTATTTGGT (site GGGAATGCTAC)”, for which the “recombinant UMI read abundance (log10)” value came out at 0.885.

On to “GGGACACCATGGACCGGTTTTCCCGGTAATCCGTATTTGCA (site GGGACACCTTG)”, for which the “recombinant UMI read abundance (log10)” value was 0.

Regarding “GGGACACCATGGACCGGTTTTCCCGGTAATCCGTATTTGCA (site GGGCCACCTTG)”, the “recombinant UMI read abundance (log10)” value is 0.

Take “GGGACACCATGGACCGGTTTTCCCGGTAATCCGTATTTGCA (site GGGGCACCTTG)”: the “recombinant UMI read abundance (log10)” value is 0.

Consider “GGGACACCATGGACCGGTTTTCCCGGTAATCCGTATTTGCA (site GGGTCACCTTG)”, for which the “recombinant UMI read abundance (log10)” value worked out at 0.

On to “GGGACGTCATGGACCGGTTTTCCCGGTAATCCGTATTTGAC (site GGGACGTCTGT)”, for which the “recombinant UMI read abundance (log10)” value is 3.2.

For “GGGACGTCATGGACCGGTTTTCCCGGTAATCCGTATTTGCA (site GGGACGTCTTG)”, the “recombinant UMI read abundance (log10)” value worked out at 1.99.

Consider “GGGACGTCATGGACCGGTTTTCCCGGTAATCCGTATTTGGC (site GGGACGTCTGC)”, for which the “recombinant UMI read abundance (log10)” value amounted to 2.43.

Take “GGGACTACATGGACCGGTTTTCCCGGTAATCCGTATTTGAC (site AGGACTACTGT)”: the “recombinant UMI read abundance (log10)” value amounted to 0.

“GGGACTACATGGACCGGTTTTCCCGGTAATCCGTATTTGAC (site CGGACTACTGT)”: the “recombinant UMI read abundance (log10)” value was 0.

Consider “GGGACTACATGGACCGGTTTTCCCGGTAATCCGTATTTGAC (site GGGACTACTGT)”, for which the “recombinant UMI read abundance (log10)” value worked out at 1.48.

On to “GGGACTACATGGACCGGTTTTCCCGGTAATCCGTATTTGAC (site TGGACTACTGT)”, for which the “recombinant UMI read abundance (log10)” value was determined as 0.

Take “GGGACTCCATGGACCGGTTTTCCCGGTAATCCGTATTTGAG (site TACGTATCTTC)”: the “recombinant UMI read abundance (log10)” value turned out to be 0.0126.

As to “GGGACTCCATGGACCGGTTTTCCCGGTAATCCGTATTTGCG (site GGGACTCCTCG)”, the “recombinant UMI read abundance (log10)” value was determined as 0.509.

“GGGATAGCATGGACCGGTTTTCCCGGTAATCCGTATTTGTT (site GGGATAGCTAA)”: the “recombinant UMI read abundance (log10)” value amounted to 1.85.

Turning to “GGGCAGGCATGGACCGGTTTTCCCGGTAATCCGTATTTGAG (site GGGCAGGCTCT)”, the “recombinant UMI read abundance (log10)” value worked out at 1.48.

For the sequence “GGGCAGGCATGGACCGGTTTTCCCGGTAATCCGTATTTGGG (site GGGCAGGCTCC)”, the “recombinant UMI read abundance (log10)” value worked out at 0.0905.

As for “GGGCATACATGGACCGGTTTTCCCGGTAATCCGTATTTGAC (site GGGCATACTGT)”, the “recombinant UMI read abundance (log10)” value was found to be 1.8.

As to “GGGCCGTCATGGACCGGTTTTCCCGGTAATCCGTATTTGTA (site GGGCCGTCTTA)”, the “recombinant UMI read abundance (log10)” value was 0.733.

Turning to “GGGCGATCATGGACCGGTTTTCCCGGTAATCCGTATTTGGC (site GGGCGATCTGC)”, the “recombinant UMI read abundance (log10)” value was 1.98.

On to “GGGGAGGCATGGACCGGTTTTCCCGGTAATCCGTATTTGAG (site GGGGAGGCTCT)”, for which the “recombinant UMI read abundance (log10)” value was determined as 0.897.

Consider “GGGGATTCATGGACCGGTTTTCCCGGTAATCCGTATTTGAT (site GGGGATTCTAT)”, for which the “recombinant UMI read abundance (log10)” value amounted to 1.72.

On to “GGGGCACCATGGACCGGTTTTCCCGGTAATCCGTATTTGCA (site AGGGCACCTTG)”, for which the “recombinant UMI read abundance (log10)” value was determined as 0.

For “GGGGCACCATGGACCGGTTTTCCCGGTAATCCGTATTTGCA (site CGGGCACCTTG)”, the “recombinant UMI read abundance (log10)” value turned out to be 0.

Regarding “GGGGCACCATGGACCGGTTTTCCCGGTAATCCGTATTTGCA (site GAGGCACCTTG)”, the “recombinant UMI read abundance (log10)” value was 0.00459.

Turning to “GGGGCACCATGGACCGGTTTTCCCGGTAATCCGTATTTGCA (site GCGGCACCTTG)”, the “recombinant UMI read abundance (log10)” value is 0.
